In ChEMBL document CHEMBL2440076, “New triarylpyrazoles as broad-spectrum anticancer agents: design, synthesis, and biological evaluation” (Eur J Med Chem, 2013):

Assays:
Type in all cases: functional
[1] = system: NCI-H322M; experiment: Growth inhibition of human NCI-H322M cells assessed as cell growth at 5X10'-7 M after 48 hrs by sulforhodamine B assay; details: read-out: Activity
[2] = system: RPMI-8226; experiment: Growth inhibition of human RPMI8226 cells assessed as cell growth at 5X10'-9 M after 48 hrs by sulforhodamine B assay; details: RPMI-8226, 48 h, read-out: Activity
[3] = system: Malme-3M; experiment: Growth inhibition of human MALME-3M cells assessed as cell growth at 5X10'-9 M after 48 hrs by sulforhodamine B assay; details: read-out: Activity
[4] = system: UACC-257; experiment: Growth inhibition of human UACC257 cells assessed as cell growth at 5X10'-7 M after 48 hrs by sulforhodamine B assay; details: UACC-257, 48 h, read-out: Activity
[5] = system: SW-620; experiment: Growth inhibition of human SW620 cells assessed as cell growth at 5X10'-8 M after 48 hrs by sulforhodamine B assay; details: SW-620, 48 h, read-out: Activity
[6] = system: SN12C; experiment: Growth inhibition of human SN12C cells assessed as cell growth at 5X10'-7 M after 48 hrs by sulforhodamine B assay; details: read-out: Activity
[7] = system: A498; experiment: Growth inhibition of human A498 cells assessed as cell growth at 5X10'-9 M after 48 hrs by sulforhodamine B assay; details: A498, 48 h, read-out: Activity
[8] = system: SR; experiment: Growth inhibition of human SR cells assessed as cell growth at 5X10'-6 M after 48 hrs by sulforhodamine B assay; details: read-out: Activity
[9] = system: IGROV-1; experiment: Growth inhibition of human IGROV1 cells assessed as cell growth at 5X10'-8 M after 48 hrs by sulforhodamine B assay; details: IGROV-1, 48 h, read-out: Activity
[10] = Growth inhibition of human NCI-ADR-RES cells assessed as cell growth at 5X10'-9 M after 48 hrs by sulforhodamine B assay; details: read-out: Activity
[11] = system: COLO 205; experiment: Growth inhibition of human COLO205 cells assessed as cell growth at 5X10'-7 M after 48 hrs by sulforhodamine B assay; details: COLO 205, 48 h, read-out: Activity
[12] = Growth inhibition of human Hs 578T cells assessed as cell growth at 5X10'-8 M after 48 hrs by sulforhodamine B assay; details: read-out: Activity
[13] = system: K562; experiment: Growth inhibition of human K562 cells assessed as cell growth at 5X10'-6 M after 48 hrs by sulforhodamine B assay; details: K562, 48 h, read-out: Activity
[14] = system: MCF7; experiment: Growth inhibition of human MCF7 cells assessed as cell growth at 5X10'-5 M after 48 hrs by sulforhodamine B assay; details: MCF7, 48 h, read-out: Activity
[15] = system: MDA-MB-435; experiment: Growth inhibition of human MDA-MB-435 cells assessed as cell growth at 5X10'-9 M after 48 hrs by sulforhodamine B assay; details: MDA-MB-435, 48 h, read-out: Activity
[16] = system: PC-3; experiment: Growth inhibition of human PC3 cells assessed as cell growth at 5X10'-8 M after 48 hrs by sulforhodamine B assay; details: PC-3, 48 h, read-out: Activity
[17] = system: IGROV-1; experiment: Growth inhibition of human IGROV1 cells assessed as cell growth at 5X10'-7 M after 48 hrs by sulforhodamine B assay; details: IGROV-1, 48 h, read-out: Activity
[18] = system: HCT-116; experiment: Growth inhibition of human HCT116 cells assessed as cell growth at 5X10'-7 M after 48 hrs by sulforhodamine B assay; details: HCT-116, 48 h, read-out: Activity
[19] = system: PC-3; experiment: Growth inhibition of human PC3 cells assessed as cell growth at 5X10'-6 M after 48 hrs by sulforhodamine B assay; details: PC-3, 48 h, read-out: Activity
[20] = system: UACC-257; experiment: Growth inhibition of human UACC257 cells assessed as cell growth at 5X10'-5 M after 48 hrs by sulforhodamine B assay; details: UACC-257, 48 h, read-out: Activity
[21] = system: SK-MEL-5; experiment: Growth inhibition of human SK-MEL-5 cells assessed as cell growth at 5X10'-9 M after 48 hrs by sulforhodamine B assay; details: SK-MEL-5, 48 h, read-out: Activity
[22] = system: SK-MEL-5; experiment: Growth inhibition of human SK-MEL-5 cells assessed as cell growth at 5X10'-7 M after 48 hrs by sulforhodamine B assay; details: SK-MEL-5, 48 h, read-out: Activity
[23] = Growth inhibition of human Hs 578T cells assessed as cell growth at 5X10'-6 M after 48 hrs by sulforhodamine B assay; details: read-out: Activity
[24] = system: UACC-62; experiment: Growth inhibition of human UACC62 cells assessed as cell growth at 5X10'-9 M after 48 hrs by sulforhodamine B assay; details: UACC-62, 48 h, read-out: Activity
[25] = system: SK-MEL-2; experiment: Growth inhibition of human SK-MEL-2 cells assessed as cell growth at 5X10'-9 M after 48 hrs by sulforhodamine B assay; details: SK-MEL-2, 48 h, read-out: Activity
[26] = system: SNB-75; experiment: Growth inhibition of human SNB75 cells assessed as cell growth at 5X10'-7 M after 48 hrs by sulforhodamine B assay; details: SNB-75, 48 h, read-out: Activity
[27] = Growth inhibition of human HCC2998 cells assessed as cell growth at 5X10'-9 M after 48 hrs by sulforhodamine B assay; details: HCC 2998, 48 h, read-out: Activity
[28] = system: KM12; experiment: Growth inhibition of human KM12 cells assessed as cell growth at 5X10'-5 M after 48 hrs by sulforhodamine B assay; details: KM12, 48 h, read-out: Activity
[29] = system: SF-268; experiment: Growth inhibition of human SF268 cells assessed as cell growth at 5X10'-5 M after 48 hrs by sulforhodamine B assay; details: SF-268, 48 h, read-out: Activity
[30] = system: M14; experiment: Growth inhibition of human M14 cells assessed as cell growth at 5X10'-8 M after 48 hrs by sulforhodamine B assay; details: M14, 48 h, read-out: Activity
[31] = Growth inhibition of human Hs 578T cells assessed as cell growth at 5X10'-9 M after 48 hrs by sulforhodamine B assay; details: read-out: Activity
[32] = system: UACC-62; experiment: Growth inhibition of human UACC62 cells assessed as cell growth at 5X10'-8 M after 48 hrs by sulforhodamine B assay; details: UACC-62, 48 h, read-out: Activity
[33] = system: NCI-H460; experiment: Growth inhibition of human NCI-H460 cells assessed as cell growth at 5X10'-5 M after 48 hrs by sulforhodamine B assay; details: NCI-H460, 48 h, read-out: Activity
[34] = system: NCI-H23; experiment: Growth inhibition of human NCI-H23 cells assessed as cell growth at 5X10'-8 M after 48 hrs by sulforhodamine B assay; details: NCI-H23, 48 h, read-out: Activity
[35] = system: SNB-19; experiment: Growth inhibition of human SNB19 cells assessed as cell growth at 5X10'-8 M after 48 hrs by sulforhodamine B assay; details: SNB-19, 48 h, read-out: Activity
[36] = system: OVCAR-3; experiment: Growth inhibition of human OVCAR3 cells assessed as cell growth at 5X10'-5 M after 48 hrs by sulforhodamine B assay; details: OVCAR-3, 48 h, read-out: Activity
[37] = Growth inhibition of human HCC2998 cells assessed as cell growth at 5X10'-7 M after 48 hrs by sulforhodamine B assay; details: HCC 2998, 48 h, read-out: Activity

For `O=C(Nc1cccc(-n2cc(-c3ccncc3)c(-c3ccc(Cl)c(O)c3)n2)c1)Nc1cc(C(F)(F)F)cc(C(F)(F)F)c1`, the growth at 0.5 µM [1] was 84%, the growth at 0.005 µM [2] was 97% and the growth at 0.005 µM [3] was 107%. The growth at 0.5 µM [4] was 84%, the growth at 0.05 µM [5] was 101% and the growth at 0.5 µM [6] was 72%. The growth at 0.005 µM [7] was 79%, the growth at 5 µM [8] was -11% and the growth at 0.05 µM [9] was 102%. For the same compound, the growth at 0.005 µM [10] was 102%, the growth at 0.5 µM [11] was 93% and the growth at 0.05 µM [12] was 94%. The growth at 5 µM [13] was -5%, the growth at 50 µM [14] was -64% and the growth at 0.005 µM [15] was 98%. The growth at 0.05 µM [16] was 89%, the growth at 0.5 µM [17] was 71% and the growth at 0.5 µM [18] was 46%. For the same compound, the growth at 5 µM [19] was -3%, the growth at 50 µM [20] was -82% and the growth at 0.005 µM [21] was 104%. The growth at 0.5 µM [22] was 62%, the growth at 5 µM [23] was -8% and the growth at 0.005 µM [24] was 95%. It also gave a growth at 0.005 µM [25] of 112%, a growth at 0.5 µM [26] of 81% and a growth at 0.005 µM [27] of 99%. For the same compound, the growth at 50 µM [28] was -85%, the growth at 50 µM [29] was -65% and the growth at 0.05 µM [30] was 104%. It also gave a growth at 0.005 µM [31] of 97%, a growth at 0.05 µM [32] of 92% and a growth at 50 µM [33] of -78%. The growth at 0.05 µM [34] was 99%, the growth at 0.05 µM [35] was 99% and the growth at 50 µM [36] was -94%. The growth at 0.5 µM [37] was 92%.
